Measured values taken from PubChem BioAssay (NCI).
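96-well plates; 48 h exposure; 5 concentrations. Endpoints by linear interpolation between flanking doses. Not reached: highest tested concentration assigned. At the GI50, growth is halved. Definition used: TGI = concentration required for complete inhibition of growth.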

Experiments:
Test in all cases: NCI tumour cell line growth inhibition, 48 h
[1] = tested on: HCC-2998 colon
[2] = tested on: EKVX NSCLC
[3] = tested on: SN12C renal
[4] = tested on: UACC-62 melanoma
[5] = tested on: UO-31 renal
[6] = tested on: TK-10 renal
[7] = tested on: CAKI-1 renal
[8] = tested on: K-562 leukemia
[9] = tested on: MCF7 breast
[10] = tested on: T-47D breast
[11] = tested on: RXF 393 renal
[12] = tested on: MDA-MB-231 breast
[13] = tested on: OVCAR-4 ovarian
[14] = tested on: SF-268 CNS
[15] = tested on: ACHN renal
[16] = tested on: NCI/ADR-RES ovarian
[17] = tested on: DU-145 prostate
[18] = tested on: HS 578T breast
[19] = tested on: A549 NSCLC
[20] = tested on: HCT-15 colon
[21] = tested on: UACC-257 melanoma
[22] = tested on: SF-295 CNS
[23] = tested on: A498 renal
[24] = tested on: NCI-H460 lung
[25] = tested on: HT29 colon
[26] = tested on: 786-0 renal
[27] = tested on: SK-MEL-2 melanoma
[28] = tested on: KM12 colon
[29] = tested on: RPMI-8226 leukemia
[30] = tested on: SNB-19 CNS
[31] = tested on: MOLT-4 leukemia
[32] = tested on: NCI-H522 lung
[33] = tested on: NCI-H23 lung
[34] = tested on: PC-3 prostate
[35] = tested on: HCT-116 colon
[36] = tested on: OVCAR-3 ovarian
[37] = tested on: BT-549 breast
[38] = tested on: MDA-MB-435
[39] = tested on: OVCAR-5 ovarian
[40] = tested on: M14 melanoma
[41] = tested on: SR leukemia
[42] = tested on: U251 CNS
[43] = tested on: HOP-62 NSCLC
[44] = tested on: COLO 205 colon
[45] = tested on: SK-MEL-5 melanoma
[46] = tested on: SK-MEL-28 melanoma
[47] = tested on: SF-539 CNS
[48] = tested on: MALME-3M melanoma
[49] = tested on: LOX IMVI melanoma
[50] = tested on: IGROV1 ovarian
[51] = tested on: SW-620 colon
[52] = tested on: SK-OV-3 ovarian
[53] = tested on: SNB-75 CNS

O=c1oc2ccc3ccccc3c2cc1-c1nnc(Nc2ccccc2)s1
TGI [1]: > 100 µM | TGI [2]: > 100 µM | TGI [3]: > 100 µM | TGI [4]: 53.9 µM | TGI [5]: 39.4 µM | TGI [6]: 32.1 µM | TGI [7]: > 100 µM | TGI [8]: > 100 µM | TGI [9]: > 100 µM | TGI [10]: > 100 µM | TGI [11]: 29.7 µM | TGI [12]: 35.1 µM | TGI [13]: 38.8 µM | TGI [14]: > 100 µM | TGI [15]: 27.2 µM | TGI [16]: > 100 µM | TGI [17]: 55.5 µM | TGI [18]: > 100 µM | TGI [19]: 59 µM | TGI [20]: > 100 µM | TGI [21]: > 100 µM | TGI [22]: 83.3 µM | TGI [23]: 22.4 µM | TGI [24]: 42.3 µM | TGI [25]: > 100 µM | TGI [26]: 31.6 µM | TGI [27]: 34.7 µM | TGI [28]: > 100 µM | TGI [29]: 50.9 µM | TGI [30]: 65.4 µM | TGI [31]: > 100 µM | TGI [32]: 69.3 µM | TGI [33]: 98.3 µM | TGI [34]: 36.6 µM | TGI [35]: 52.4 µM | TGI [36]: 31.4 µM | TGI [37]: > 100 µM | TGI [38]: > 100 µM | TGI [39]: > 100 µM | TGI [40]: > 100 µM | TGI [41]: 81.7 µM | TGI [42]: 21.3 µM

Cc1c(C)n(CCCN2CCN(C)CC2)c2ccc(Oc3cccc(C(=O)N4CCN(CCc5ccc(F)cc5)CC4)c3)cc12
GI50 [1]: 1.81 µM | TGI [1]: 3.37 µM | GI50 [2]: 1.65 µM | TGI [2]: 3.12 µM | GI50 [43]: 1.63 µM | TGI [43]: 3.34 µM | GI50 [3]: 1.54 µM | TGI [3]: 3.09 µM | GI50 [4]: 1.87 µM | TGI [4]: 3.58 µM | GI50 [5]: 1.23 µM | TGI [5]: 2.52 µM | GI50 [44]: 1.97 µM | TGI [44]: 3.8 µM | GI50 [6]: 1.62 µM | TGI [6]: 3.23 µM | GI50 [7]: 1.77 µM | TGI [7]: 3.46 µM | GI50 [9]: 1.59 µM | TGI [9]: 3.22 µM | GI50 [11]: 1.59 µM | TGI [11]: 3.06 µM | GI50 [12]: 1.82 µM | TGI [12]: 3.43 µM | GI50 [13]: 1.84 µM | TGI [13]: 3.92 µM | GI50 [14]: 1.79 µM | TGI [14]: 3.78 µM | GI50 [15]: 1.67 µM | TGI [15]: 3.06 µM | GI50 [16]: 1.79 µM | TGI [16]: 3.54 µM | GI50 [17]: 1.86 µM | TGI [17]: 3.6 µM | GI50 [18]: 2.05 µM | TGI [18]: 4.51 µM | GI50 [45]: 1.71 µM | TGI [45]: 3.08 µM | GI50 [19]: 1.81 µM | TGI [19]: 3.62 µM | GI50 [20]: 1.59 µM | TGI [20]: 3.09 µM | GI50 [21]: 1.88 µM | TGI [21]: 3.72 µM | GI50 [46]: 1.78 µM | TGI [46]: 3.24 µM | GI50 [22]: 1.85 µM | TGI [22]: 3.33 µM | GI50 [47]: 1.63 µM | TGI [47]: 3.03 µM | GI50 [24]: 1.86 µM | TGI [24]: 3.45 µM | GI50 [48]: 1.78 µM | TGI [48]: 3.32 µM | GI50 [26]: 1.53 µM | TGI [26]: 2.95 µM | GI50 [28]: 1.93 µM | TGI [28]: 3.64 µM | GI50 [49]: 1.75 µM | TGI [49]: 3.19 µM | GI50 [30]: 1.75 µM | TGI [30]: 3.31 µM | GI50 [50]: 1.57 µM | TGI [50]: 3.16 µM | GI50 [51]: 1.77 µM | TGI [51]: 3.28 µM | GI50 [33]: 1.85 µM | TGI [33]: 3.49 µM | GI50 [34]: 1.06 µM | TGI [34]: 2.61 µM | GI50 [36]: 1.82 µM | TGI [36]: 3.39 µM | GI50 [37]: 1.58 µM | TGI [37]: 3.19 µM | GI50 [52]: 1.91 µM | TGI [52]: 3.62 µM | GI50 [53]: 1.39 µM | TGI [53]: 2.85 µM | GI50 [38]: 1.78 µM | TGI [38]: 3.33 µM | GI50 [39]: 1.58 µM | TGI [39]: 3 µM | GI50 [42]: 1.66 µM | TGI [42]: 3.28 µM
